Experimental data from PubChem BioAssay (NCI).
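1) Cells in 96-well plates. 2) Compound, 48 h, 5 concentrations. 3) Linear interpolation between surrounding doses. 4) Unreached endpoint = highest concentration. GI50: concentration for 50% inhibition of growth. The concentration for full growth arrest is given as TGI.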

Tests used:
Assay in all cases: NCI anticancer screen, dose series, 48 h
786-0 renal = test system: 786-0 renal
A498 renal = test system: A498 renal
A549 NSCLC = test system: A549 NSCLC
ACHN renal = test system: ACHN renal
BT-549 breast = test system: BT-549 breast
CAKI-1 renal = test system: CAKI-1 renal
CCRF-CEM leukemia = test system: CCRF-CEM leukemia
COLO 205 colon = test system: COLO 205 colon
DU-145 prostate = test system: DU-145 prostate
EKVX NSCLC = test system: EKVX NSCLC
HCT-116 colon = test system: HCT-116 colon
HCT-15 colon = test system: HCT-15 colon
HL-60(TB) leukemia = test system: HL-60(TB) leukemia
HOP-62 NSCLC = test system: HOP-62 NSCLC
HOP-92 NSCLC = test system: HOP-92 NSCLC
HS 578T breast = test system: HS 578T breast
IGROV1 ovarian = test system: IGROV1 ovarian
KM12 colon = test system: KM12 colon
LOX IMVI melanoma = test system: LOX IMVI melanoma
M14 melanoma = test system: M14 melanoma
MALME-3M melanoma = test system: MALME-3M melanoma
MCF7 breast = test system: MCF7 breast
MDA-MB-231 breast = test system: MDA-MB-231 breast
MDA-MB-435 = test system: MDA-MB-435
MOLT-4 leukemia = test system: MOLT-4 leukemia
NCI-H226 lung = test system: NCI-H226 lung
NCI-H23 lung = test system: NCI-H23 lung
NCI-H460 lung = test system: NCI-H460 lung
NCI-H522 lung = test system: NCI-H522 lung
NCI/ADR-RES ovarian = test system: NCI/ADR-RES ovarian
OVCAR-3 ovarian = test system: OVCAR-3 ovarian
OVCAR-5 ovarian = test system: OVCAR-5 ovarian
OVCAR-8 ovarian = test system: OVCAR-8 ovarian
PC-3 prostate = test system: PC-3 prostate
RPMI-8226 leukemia = test system: RPMI-8226 leukemia
RXF 393 renal = test system: RXF 393 renal
SF-268 CNS = test system: SF-268 CNS
SF-295 CNS = test system: SF-295 CNS
SF-539 CNS = test system: SF-539 CNS
SK-MEL-2 melanoma = test system: SK-MEL-2 melanoma
SK-MEL-5 melanoma = test system: SK-MEL-5 melanoma
SK-OV-3 ovarian = test system: SK-OV-3 ovarian
SN12C renal = test system: SN12C renal
SNB-19 CNS = test system: SNB-19 CNS
SW-620 colon = test system: SW-620 colon
T-47D breast = test system: T-47D breast
TK-10 renal = test system: TK-10 renal
U251 CNS = test system: U251 CNS
UACC-257 melanoma = test system: UACC-257 melanoma
UACC-62 melanoma = test system: UACC-62 melanoma
UO-31 renal = test system: UO-31 renal

COc1cc2c(/C=C3/C(=O)Nc4ccccc43)c(Cl)n(Cc3ccccc3)c2cc1C
GI50 (786-0 renal): > 100 µM
TGI (786-0 renal): > 100 µM
GI50 (A498 renal): > 100 µM
TGI (A498 renal): > 100 µM
GI50 (A549 NSCLC): > 100 µM
TGI (A549 NSCLC): > 100 µM
GI50 (ACHN renal): > 100 µM
TGI (ACHN renal): > 100 µM
GI50 (BT-549 breast): > 100 µM
TGI (BT-549 breast): > 100 µM
GI50 (CAKI-1 renal): > 100 µM
TGI (CAKI-1 renal): > 100 µM
GI50 (CCRF-CEM leukemia): 29.1 µM
TGI (CCRF-CEM leukemia): > 100 µM
GI50 (COLO 205 colon): 31.8 µM
TGI (COLO 205 colon): > 100 µM
GI50 (DU-145 prostate): > 100 µM
TGI (DU-145 prostate): > 100 µM
GI50 (EKVX NSCLC): > 100 µM
TGI (EKVX NSCLC): > 100 µM
GI50 (HCT-116 colon): > 100 µM
TGI (HCT-116 colon): > 100 µM
GI50 (HCT-15 colon): > 100 µM
TGI (HCT-15 colon): > 100 µM
GI50 (HL-60(TB) leukemia): 6.61 µM
TGI (HL-60(TB) leukemia): > 100 µM
GI50 (HOP-62 NSCLC): > 100 µM
TGI (HOP-62 NSCLC): > 100 µM
GI50 (HOP-92 NSCLC): > 100 µM
TGI (HOP-92 NSCLC): > 100 µM
GI50 (HS 578T breast): > 100 µM
TGI (HS 578T breast): > 100 µM
GI50 (IGROV1 ovarian): > 100 µM
TGI (IGROV1 ovarian): > 100 µM
GI50 (KM12 colon): > 100 µM
TGI (KM12 colon): > 100 µM
GI50 (LOX IMVI melanoma): > 100 µM
TGI (LOX IMVI melanoma): > 100 µM
GI50 (M14 melanoma): > 100 µM
TGI (M14 melanoma): > 100 µM
GI50 (MALME-3M melanoma): > 100 µM
TGI (MALME-3M melanoma): > 100 µM
GI50 (MCF7 breast): > 100 µM
TGI (MCF7 breast): > 100 µM
GI50 (MDA-MB-231 breast): > 100 µM
TGI (MDA-MB-231 breast): > 100 µM
GI50 (MDA-MB-435): 64.4 µM
TGI (MDA-MB-435): > 100 µM
GI50 (MOLT-4 leukemia): 6.05 µM
TGI (MOLT-4 leukemia): > 100 µM
GI50 (NCI-H226 lung): > 100 µM
TGI (NCI-H226 lung): > 100 µM
GI50 (NCI-H23 lung): > 100 µM
TGI (NCI-H23 lung): > 100 µM
GI50 (NCI-H460 lung): > 100 µM
TGI (NCI-H460 lung): > 100 µM
GI50 (NCI-H522 lung): > 100 µM
TGI (NCI-H522 lung): > 100 µM
GI50 (NCI/ADR-RES ovarian): > 100 µM
TGI (NCI/ADR-RES ovarian): > 100 µM
GI50 (OVCAR-3 ovarian): > 100 µM
TGI (OVCAR-3 ovarian): > 100 µM
GI50 (OVCAR-5 ovarian): > 100 µM
TGI (OVCAR-5 ovarian): > 100 µM
GI50 (OVCAR-8 ovarian): > 100 µM
TGI (OVCAR-8 ovarian): > 100 µM
GI50 (PC-3 prostate): 87.9 µM
TGI (PC-3 prostate): > 100 µM
GI50 (RPMI-8226 leukemia): 21.1 µM
TGI (RPMI-8226 leukemia): > 100 µM
GI50 (RXF 393 renal): > 100 µM
TGI (RXF 393 renal): > 100 µM
GI50 (SF-268 CNS): > 100 µM
TGI (SF-268 CNS): > 100 µM
GI50 (SF-295 CNS): > 100 µM
TGI (SF-295 CNS): > 100 µM
GI50 (SF-539 CNS): > 100 µM
TGI (SF-539 CNS): > 100 µM
GI50 (SK-MEL-2 melanoma): > 100 µM
TGI (SK-MEL-2 melanoma): > 100 µM
GI50 (SK-MEL-5 melanoma): 42.2 µM
TGI (SK-MEL-5 melanoma): > 100 µM
GI50 (SK-OV-3 ovarian): > 100 µM
TGI (SK-OV-3 ovarian): > 100 µM
GI50 (SN12C renal): > 100 µM
TGI (SN12C renal): > 100 µM
GI50 (SNB-19 CNS): > 100 µM
TGI (SNB-19 CNS): > 100 µM
GI50 (SW-620 colon): > 100 µM
TGI (SW-620 colon): > 100 µM
GI50 (T-47D breast): 41.9 µM
TGI (T-47D breast): > 100 µM
GI50 (TK-10 renal): > 100 µM
TGI (TK-10 renal): > 100 µM
GI50 (U251 CNS): > 100 µM
TGI (U251 CNS): > 100 µM
GI50 (UACC-257 melanoma): > 100 µM
TGI (UACC-257 melanoma): > 100 µM
GI50 (UACC-62 melanoma): > 100 µM
TGI (UACC-62 melanoma): > 100 µM
GI50 (UO-31 renal): 83.4 µM
TGI (UO-31 renal): > 100 µM
